This note sets out measurements from ChEMBL document CHEMBL1135849, “Hydroxamate based inhibitors of adenylyl cyclase. Part 1: the effect of acyclic linkers on P-site binding” (Bioorg Med Chem Lett, 2002).

This test deals with Adenylate cyclase type 5 (Homo sapiens, UniProt O95622). In words: Inhibition of recombinant human adenylate cyclase 5 expressed in HEK293 cells. The test is classed as cell-based.

As a reminder, the IC50 is the concentration that gives 50% inhibition.

Chain of Adenylate cyclase type 5 (O95622 whole entry): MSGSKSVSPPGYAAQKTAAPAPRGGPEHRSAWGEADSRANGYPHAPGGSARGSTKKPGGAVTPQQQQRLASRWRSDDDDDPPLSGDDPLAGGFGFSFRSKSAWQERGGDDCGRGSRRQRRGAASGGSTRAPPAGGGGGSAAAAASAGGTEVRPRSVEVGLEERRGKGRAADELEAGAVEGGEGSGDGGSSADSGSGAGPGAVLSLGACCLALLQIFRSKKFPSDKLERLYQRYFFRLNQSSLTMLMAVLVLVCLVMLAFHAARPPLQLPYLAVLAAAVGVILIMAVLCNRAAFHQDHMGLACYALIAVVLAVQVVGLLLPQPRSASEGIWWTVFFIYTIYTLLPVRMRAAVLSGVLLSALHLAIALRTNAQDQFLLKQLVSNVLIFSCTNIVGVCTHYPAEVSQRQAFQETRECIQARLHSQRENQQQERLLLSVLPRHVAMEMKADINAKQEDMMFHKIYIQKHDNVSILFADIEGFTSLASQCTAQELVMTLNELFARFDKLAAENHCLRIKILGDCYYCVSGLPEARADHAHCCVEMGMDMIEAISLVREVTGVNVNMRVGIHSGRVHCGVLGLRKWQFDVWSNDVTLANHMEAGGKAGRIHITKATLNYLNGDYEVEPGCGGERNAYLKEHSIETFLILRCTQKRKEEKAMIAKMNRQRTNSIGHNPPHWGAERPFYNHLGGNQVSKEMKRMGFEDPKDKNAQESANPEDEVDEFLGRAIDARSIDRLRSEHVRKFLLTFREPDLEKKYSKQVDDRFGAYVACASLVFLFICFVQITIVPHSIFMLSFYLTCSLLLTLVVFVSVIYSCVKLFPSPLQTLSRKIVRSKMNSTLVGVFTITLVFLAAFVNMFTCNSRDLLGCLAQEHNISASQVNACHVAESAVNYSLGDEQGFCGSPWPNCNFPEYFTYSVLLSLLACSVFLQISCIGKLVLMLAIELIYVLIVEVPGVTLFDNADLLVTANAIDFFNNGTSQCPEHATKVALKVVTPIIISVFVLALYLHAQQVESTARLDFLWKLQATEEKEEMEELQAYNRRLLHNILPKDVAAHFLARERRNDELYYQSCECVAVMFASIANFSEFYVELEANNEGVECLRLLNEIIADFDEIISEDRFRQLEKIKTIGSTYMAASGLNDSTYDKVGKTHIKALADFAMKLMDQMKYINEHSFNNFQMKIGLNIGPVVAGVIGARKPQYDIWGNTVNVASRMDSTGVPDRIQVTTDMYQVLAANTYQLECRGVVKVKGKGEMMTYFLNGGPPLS

Turning to `Nc1ncnc2c1ncn2CCCCC(=O)O`, the IC50 was more than 200 µM.

Turning to `CC(C)(C)OC(=O)N(CCn1cnc2c(N)ncnc21)CC(=O)O`, the IC50 is more than 200 µM.

As to `Nc1ncnc2c1ncn2CCCCCC(=O)O`, the IC50 was more than 200 µM.

Consider `COC(=O)CCCCn1cnc2c(N)ncnc21`, for which the IC50 is more than 200 µM.

For `Nc1ncnc2c1ncn2CCCCCCC(=O)O`, the IC50 was more than 200 µM.

For the molecule `Nc1ncnc2c1ncn2CCCOCC(=O)O`, the IC50 turned out to be 140 µM.

As to `CCOC(=O)COCCCn1cnc2c(N)ncnc21`, the IC50 is more than 200 µM.

Consider `CC(=O)N(CCn1cnc2c(N)ncnc21)CC(=O)O`, for which the IC50 was more than 200 µM.

`Nc1ncnc2c1ncn2CCCCCCC(=O)NO`: the concentration for half-maximal inhibition (IC50) is more than 200 µM.

Take `COC(=O)CN(C)CCn1cnc2c(N)ncnc21`: the IC50 was more than 200 µM.

`Nc1ncnc2c1ncn2CCCOCC(=O)NO`: the IC50 worked out at 94 µM.

Take `Nc1ncnc2c1ncn2CCCNCC(=O)O`: the IC50 was more than 200 µM.

As for `Nc1ncnc2c1ncn2CCNCC(=O)NO`, the IC50 is more than 200 µM.

In the case of `CN(CCn1cnc2c(N)ncnc21)CC(=O)NO`, the IC50 was 15.3 µM.

For the molecule `CC(=O)N(CCn1cnc2c(N)ncnc21)CC(=O)NO`, the concentration for half-maximal inhibition (IC50) was more than 200 µM.

With `COC(=O)CNCCCn1cnc2c(N)ncnc21`, the IC50 is more than 200 µM.

`Nc1ncnc2c1ncn2CCNCC(=O)O`: the IC50 was more than 200 µM.

For `CC(C)(C)OC(=O)N(CCCn1cnc2c(N)ncnc21)CC(=O)NO`, the IC50 is more than 200 µM.

`Nc1ncnc2c1ncn2CCCC(=O)NO`: the 50% inhibitory concentration (IC50) was found to be 7.9 µM.

On to `CCOC(=O)CCCCCCn1cnc2c(N)ncnc21`, for which the IC50 is more than 200 µM.

With `CCOC(=O)CCCCCn1cnc2c(N)ncnc21`, the half-maximal inhibitory concentration (IC50) was more than 200 µM.

For `CC(C)(C)OC(=O)N(CCCn1cnc2c(N)ncnc21)CC(=O)O`, the IC50 was more than 200 µM.

Take `COC(=O)CN(CCn1cnc2c(N)ncnc21)C(=O)OC(C)(C)C`: the IC50 is more than 200 µM.

In the case of `CC(C)(C)OC(=O)N(CCn1cnc2c(N)ncnc21)CC(=O)NO`, the IC50 is more than 200 µM.

Regarding `COC(=O)CNCCn1cnc2c(N)ncnc21`, the IC50 is more than 200 µM.

For the molecule `Nc1ncnc2c1ncn2CCC(=O)NO`, the IC50 was more than 200 µM.

For the molecule `COC(=O)CN(CCn1cnc2c(N)ncnc21)C(C)=O`, the half-maximal inhibitory concentration (IC50) was more than 200 µM.

As for `Nc1ncnc2c1ncn2CCCNCC(=O)NO`, the IC50 was more than 200 µM.

On to `Nc1ncnc2c1ncn2CCCCC(=O)NO`, for which the IC50 was found to be 7.6 µM.

As for `Nc1ncnc2c1ncn2CCCCCC(=O)NO`, the IC50 was determined as 35.4 µM.
